Assay results published in patent US20160058829A1, “ANTI-FIBROTIC PEPTIDES AND THEIR USE IN METHODS FOR TREATING DISEASES AND DISORDERS CHARACTERIZED BY FIBROSIS” (Thrasos Innovation, Inc., priority 2011, published 2016).
Positions of bridges follow the written chain, without caps; N, C: chain ends.

How the values were obtained:
COL4A3−/− mice = assay: COL4A3 deficient mice (Alport syndrome model); assay type: in vivo
Source text: FIG. 64a-FIG. 64N […] inhibits Renal Fibrosis in the COL4A3 Deficient mice. FIG. 64A-FIG. 64C. Representative histological PAS staining of glomeruli from 16 weeks old wild type (FIG. 64A); 16 weeks old COL4A3−/− (FIG. 64B), and 16 weeks old COL4A3−/− mice treated with THR-123 (FIG. 64C), original magnification ×400. D-F. Representative histological Masson's trichrome staining of kidneys from 16 weeks old wild type (FIG. 64D); 16 weeks old COL4A3−/− (FIG. 64E), and 16 weeks old COL4A3−/− mice treated with THR-123 (FIG. 64F), original magnification ×100. FIG. 64G-FIG. 64I. Morphometric analyses from 16 weeks old wild type (n=5), COL4A3−/− (n=5) and COL4A3−/− mice treated with THR-123 (n=5) assessing percent normal glomeruli (FIG. 64G), tubular damage index (FIG. 64H), relative interstitial volume (FIG. 64I). FIG. 64J. Blood urea nitrogen measurement for […] wild type (n=5), 16 weeks old COL4A3−/− (n=5) and COL4A3−/− mice treated with THR-123 (n=5). FIG. 64K-FIG. 64M. FSP1/E-cadherin immunolabeling of kidney. Representative results are shown. FIG. 64N. Percent of E-cadherin/FSP1double positive tubule, 500 tubules per slide, 5 slides per experimental group.
Eight weeks old COL4A3^−/− mice are treated either THR-123 (p.o. 5 mg/Kg/day) or vehicle. COL4A3^−/− mice are sacrificed at 16 weeks of age.
For morphometric analyses of percent normal glomeruli, 100 glomeruli were counted per slide from random fields of view, and five slides were counted per experimental group. The number of normal glomeruli was expressed as a percentage of the total number of glomeruli counted.

[1] = test system: Alk-3 deleted mice and littermate control mice, IRI; assay: IRI in Alk-3 deleted (γGT-Cre; Alk3 flox/flox) and control mice; assay type: in vivo; conditions: for renal injury (tubular necrosis), IRI: THR-123 orally 5 mg/kg/day
Protocol: FIG. 76A-FIG. 76T THR-123 acts on tubule Alk3 as a receptor in kidney disease models. FIG. 76A-FIG. 76D, The effect of THR-123 on the IRI model kidney injury in Alk3^flox/flox and […]GTCre; Alk3^flox/flox mice. After ischemia reperfusion injury the mice were given THR-123 orally (5 mg/kg/day) till the day of sacrifice. FIG. 76A-FIG. 76C, the representative H&E staining picture of indicated group of mice are shown. FIG. 76D. Percentage renal tubular necrosis in IRI. Ten fields in each group were analyzed. Data are shown as mean±s.e.m. in the graph. FIG. 76E-FIG. 76T, The effect of THR-123 on the NTN model kidney injury in Alk3^flox/flox and gGTCre; Alk3^flox/flox mice. Six weeks after NTN was introduced in the indicated groups of mice, mice were treated with PBS or THR-123 orally. FIG. 76E-FIG. 76H, the representative MTS staining picture of indicated group of mice are shown. FIG. 76I, Morphometric analyses from 9 weeks of NTN models in indicated groups. FIG. 76J-FIG. 76N, Macrophage accumulation analysis in the kidney of NTN model in Alk3^flox/flox and gGTCre; Alk3^flox/flox mice. FIG. 76J-FIG. 76M, Mac-1 immunofluorescence study of indicated groups of mice. FIG. 76N, The number of macrophages per field of view (×400 magnification) was assessed by counting positively labeled cells in 5 random fields of view per slide, with 5 slides per experimental group. Data are shown as mean±s.e.m. in the graph. FIG. 76O-FIG. 76S, EMT analysis, FIG. 76O-FIG. 76R, E-cadherin/FSP1 immunolabeling of kidney in NTN-induced Alk3^flox/flox and GTCre; Alk3^flox/flox mice treated with either PBS or THR-123. FIG. 76S. Percent of E-cadherin/FSP1 double positive tubule. 500 tubules per slide, 5 slides per experimental group were analyzed. Data are expressed as mean±s.e.m. in the graph. FIG. 76T, Blood urea nitrogen measurement in 6 and 9 weeks of NTN in indicated groups of mice (all n=4).
Ischemia reperfusion injury (IRI) was induced by clamping of the left renal pedicle for 25 minutes. After ischemia reperfusion injury the mice were given THR-123 orally (5 mg/kg/day) or PBS till the day of sacrifice. FIG. 77A-FIG. 77C. Mac-1 immunofluorescence studies in the indicated groups. FIG. 77D. The number of macrophages per field of view (×400 magnification) was assessed by counting positively labeled cells in 5 random fields of view per slide, with 5 slides per experimental group.
Ischemia reperfusion injury (IRI) was induced by clamping of the left renal pedicle for 25 minutes. After ischemia reperfusion injury the mice were given THR-123 orally (5 mg/kg/day) or PBS till the day of sacrifice. FIG. 78A-FIG. 78C. Tubule cell apoptosis was analyzed in frozen kidney sections of indicated groups of animals by TUNEL staining. FIG. 78D. Quantification of TUNEL positive tubule cells. The number of TUNEL positive tubules per field of view (×200 magnification) was assessed by counting positively labeled cells in 5 random fields of view per slide, with 5 slides per experimental group.
THR-123 binds to Alk-3 receptor and induced actions that mimic BMP7 (vide supra). […] To functionally validate the target of THR-123 in exerting such reno-protective activity in mice, the efficacy of THR-123 in the Alk-3 deleted mice subjected to renal injury was tested (FIG. 42 K). The Alk-3 deleted mice and their littermate (control) mice were subjected to IRI.
Alk-3 flox mice are provided by Dr. Yuji Mishina, National Institutes of Health with material transfer agreements. γGT-Cre mice are provided from Dr. Eric Neilson, Vanderbilt University Medical Center. NTN is induced by the method described above.

For “(H)-CYFDDSSNVLCKKYRS-(OH) (H-CYFDDSSNVLCKKYRS-OH; disulfide 1-11; SMILES CC(C)C[C@@H]1NC(=O)[C@H](C(C)C)NC(=O)[C@H](CC(N)=O)NC(=O)[C@H](CO)NC(=O)[C@H](CO)NC(=O)[C@H](CC(=O)O)NC(=O)[C@H](CC(=O)O)NC(=O)[C@H](Cc2ccccc2)NC(=O)[C@H](Cc2ccc(O)cc2)NC(=O)[C@@H](N)CSSC[C@@H](C(=O)N[C@@H](CCCCN)C(=O)N[C@@H](CCCCN)C(=O)N[C@@H](Cc2ccc(O)cc2)C(=O)N[C@@H](CCCNC(=N)N)C(=O)N[C@@H](CO)C(=O)O)NC1=O) [SEQ ID NO: 1]”, which “blood urea nitrogen level” value (COL4A3−/− mice; THR-123 p.o. 5 mg/Kg/day) is on record?
Its value is “significantly improved blood urea nitrogen level”.

And the “tubular atrophy and interstitial fibrosis” value (COL4A3−/− mice; THR-123 p.o. 5 mg/Kg/day)?
Its value is “significantly inhibited tubular atrophy and interstitial fibrosis”.

What about the glomerular abnormalities (COL4A3−/− mice; THR-123 p.o. 5 mg/Kg/day, 8 to 16 weeks of age) of the same substance?
The glomerular abnormalities was “did not alter glomerular abnormalities”.

What about the “acquisition of an EMT program” value (COL4A3−/− mice; mouse, in vivo) of the same substance?
The value was “inhibited such acquisition of an EMT program”.

And the macrophage infiltration (COL4A3−/− mice; mouse, in vivo)?
The macrophage infiltration was “inhibited macrophage infiltration”.

What about the phospho-smad1/5 accumulation (COL4A3−/− mice; mouse, in vivo) of the same substance?
The phospho-smad1/5 accumulation was “increased accumulation of phospho-smad1/5”.

What about the “macrophage accumulation, IRI” value ([1]; Alk-3 deleted mice) of the same substance?
Its value is “does not inhibit macrophage accumulation”.

What about the “tubular apoptosis, IRI” value ([1]; Alk-3 deleted mice) of the same substance?
Its value is “does not inhibit apoptosis”.

What about the “renal injury (tubular necrosis), IRI” value ([1]; Alk-3 deleted mice) of the same substance?
The value was “does not exhibit therapeutic effect”.

What about the “macrophage accumulation, IRI” value ([1]; control mice) of the same substance?
Its value is “reduction in macrophage accumulation”.

What about the “tubular apoptosis, IRI” value ([1]; control mice) of the same substance?
The value was “decreased tubular apoptosis”.

And the “renal injury (tubular necrosis), IRI” value ([1]; control mice)?
The value was “inhibited renal injury”.
